According to EP0840781B1, “METHODS AND DEVICES FOR THE REMOVAL OF PSORALENS FROM BLOOD PRODUCTS” (Cerus Corporation, priority 1995, dated 1996):
Like-named read-outs stand apart in the source and are kept apart here.

Key:
[1] = system: H9 cells chronically infected with HIVIIIB; assay: Inactivation of cell-associated HIV in platelet concentrate, HIV microplaque assay; type: cell-based; settings: 150 µM in platelet concentrate; for logs of HIV inactivated (cell-associated): 3 Joules/cm^2, starting log titer 6.1 (Compound 2) or 6.6 (Compound 18); for log inactivation of HIV, dark control: no UVA
Experimental: H9 cells chronically infected with HIVIIIB were used. (H9/HTLV-III-B NIH 1983 Cat.#400). Cultures of these cells were maintained in high glucose Dulbecco Modified Eagle Medium supplemented with 2 mM L-glutamine, 200 u/mL penicillin, 200 µg/ml streptomycin, and 9% fetal bovine serum (Intergen Company, Purchase, N.Y.) For maintenance, the culture was split once a week, to a density of 3 x 10^5 to 4 x 10^5 cells/ml and about four days after splitting, 3.3% sodium bicarbonate was added as needed. For the inactivation procedure, the cells were used three days after they were split. They were pelleted from their culture medium at 400 g x 10 minutes, the supernatant was discarded, and the cells were resuspended in one to five day old human platelet concentrate (PC) (pH 7.5-6.5), to a concentration of 2 x 10^6 cells/ml. Aliquots of the PC-infected cell suspension were made for psoralen free dark controls, for psoralen free UVA only controls, for psoralen dark controls, and for the psoralen plus UVA experimental sample. Concentrated filter-sterilized stock solutions of each psoralen in water were diluted into the appropriate aliquots to yield a final concentration of 150 µM. […] After an equilibration period of thirty minutes at room temperature, 0.5 ml of each of the dark controls was placed in a cryovial and stored in the dark at -80° C. For UVA illumination, 8 ml of the psoralen free aliquot and 8 ml of each psoralen containing aliquot were introduced into a modified F1 20 Teflon™ bag (modified to be 92 cm^2 total surface area. The West Co., Phoenixvill, PA) via a plastic disposable 10 ml syringe attached to one of the polypropylne ports on the bag. This gave an average path length of 0.17 cm. The bags were then illuminated for a total exposure of 3 Joules/cm^2 in the device described in Example 1, above, attached to a circulating refrigerating water bath set at 4° C. which maintains the temperature in the bag at approximately 22-25° C. During exposure, the device was shaken on a platelet shaker (Helmer Labs, Noblesville, IN). After exposure, the contents of the bags were withdrawn by a fresh syringe through the remaining unused port on the bag, and placed in cryovials for storage in the dark at […] until analysis.
Clot removal from each sample was performed before plating.

[2] = system: HIV-1; settings: 1 Minute Irradiation
Experimental: Pathogen inactivation efficiency of several compounds described herein was evaluated by examining the ability of the compounds to inactivate cell-free virus (HIV). Inactivation of cell-free HIV was performed as follows.
As in the R17 assay, small aliquots of the compounds listed in TABLES 10 and 11, below, at the concentrations listed in the table, were added to stock HIV-1 to a total of 0.5 mL. The stock HIV (10^5 - 10^7 plaque forming units/mL) was in DMEM/15% FBS. […] Controls included HIV-I stock only, HIV-1 plus UVA only, and HIV-I plus the highest concentration of each psoralen tested, with no UVA. Post irradiation. all samples were store frozen at -70° C until assayed for infectivity by a microtiter plaque assay. Aliquots for measurement of residual HIV infectivity in the samples treated with a compound of the present invention were withdrawn and cultured.
Residual HIV infectivity was assayed using an MT-2 infectivity assay. […] The assay medium was 85% DMEM (with a high glucose concentration) containing 100 µg of streptomycin, 100 U of penicillin, 50 µg of gentamicin, and 1 µg of amphotericin B per mL, 15% FBS and 2 µg of Polybrene (Sigma Chemical Co., St. Louis, Mo.) per mL. Test and control samples from the inactivation procedure were diluted in 50% assay medium and 50% normal human pooled plasma. The samples were serially diluted directly in 96-well plates (Coming Glass Works, Coming, N.Y.). The plates were mixed on an oscillatory shaker for 30 seconds and incubated at 37°C in a 5% CO2 atmosphere for 1 to 18 hours. […] After an additional 1 hour of incubation at 37°C in 5% CO2, 0.075 mL of assay medium containing 1.6% SeaPlaque agarose (FMC Bioproducts, Rockland, Maine) and prewarmed to 38.5°C was added to each well. The plates were kept at 37°C for a few minutes until several plates had accumulated and then centrifuged in plate carriers at 600 x g for 20 minutes in a centrifuge precooled to 10°C. In the centrifuge, cell monolayers formed prior to gelling of the agarose layer. The plates were incubated for 5 days at 37°C in 5% CO2 and stained by the addition of 0.05 mL of 50 µg/mL propidium iodide (Sigma Chemical Co.) in phosphate-buffered saline (pH 7.4) to each well. After 24 to 48 hours, the red fluorescence-stained microplaques were visualized by placing the plates on an 8,000 µW/cm^2 304 nm UV light box (Fotodyne, Inc., New Berlin, Wis.). The plaques were counted at a magnification of x20 to x25 through a stereomicroscope.

[3] = system: R17; assay: r-17 bacteriophage assay: R17 treated with compound and UVA, remaining titer by plaque count on Hfr 3000 bacteria; type: cell-based; settings: for R17 inactivation efficiency compared with AMT: varying concentration (Tables 7 and 8, FIGS. 6-10)
Summary of the method: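 R17 phage (10^9/mL in DMEM) was mixed with test compound and UVA-irradiated for 1–10 minutes; some runs held compound constant and varied UV dose in 1.0 J/cm^2 steps. Serial dilutions were plated on Hfr 3000 bacteria overnight at 37 °C, and remaining titer came from plaque counts. Controls: untreated phage, UV-only and dark.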

[4] = system: Duck Hepatitis B Virus (DHBV); assay: Inactivation of Duck Hepatitis B Virus in platelet concentrate, read out by PCR amplification; type: biochemical; settings: 5 J/cm^2 UVA
Experimental: This example describes the protocol for inactivation of Duck Hepatitis B Virus (DHBV), a model for Hepatitis B Virus, using compounds described herein.
DHBV in duck yolk was added to platelet concentrate (PC) to a final concentration of 2 x 10^7 particles per mL and mixed by gentle rocking for ≥15 min. Psoralens S-70, S-59 and AMT were added to 3 mL aliquots of PC in a Teflon™ mini-bag at concentrations of […]. Samples, including controls without added psoralen, were irradiated with 5 J/cm^2 UVA, with mixing at 1 J/cm^2 increments. After irradiation, leukocytes and platelets were separated from virus by centrifugation. The supernatant containing DHBV was digested overnight with 50 µg/mL proteinase K in a buffer containing 0.5% sodium dodecyl sulphate, 20 mM Tris buffer, pH 8.0, and 5 mM EDTA at 55°C. Samples were extracted with phenolchloroform and chloroform, followed by ethanol precipitation. Purified DNA was then used in PCR amplification reactions with a starting input of 10^6 DHBV genomes from each sample. PCR amplicons were generated using primers pairs DCD03/DCD05 (127 bp), DCD03/DCD06 (327 bp) and DCD03/DCD07 (1072 bp). PCR was performed in a standard PCR buffer containing 0.2 mM each deoxyribonucleoside 5'-triphosphates (dATP, dGTP, dCTP, and dTTP), […] each primer, and 0.5 units Taq polymerase per […]. 30 cycles of amplification were performed with the following thermal profile: 95°C 30 sec, 60° C 30 sec, 72° C 1 min. The amplification was followed by a 7 min incubation at 72° C to yield full length products. [[…]-^32P] dCTP was added at an amount of […] per […] in order to detect and quantify the resulting products. Products were separated by electrophoresis on denaturing polyacrylamide slab gels and counted. The absence of signal in a given reaction was taken to indicate effective inactivation of DHBV.

[5] = 16 µM, HIV Starting Titer Approximately 5.4 Logs (Table 11)
[6] = 32 µM, HIV Starting Titer Approximately 5.4 Logs (Table 11)
[7] = 64 µM, HIV Starting Titer Approximately 5.4 Logs (Table 11)
[8] = 16 µM, 1 Minute Irradiation, Starting Titer Approx. 7.1 Logs (Table 9)
[9] = 16 µM, 1 Minute irradiation = 1.2 J/cm^2, Starting Titer Approx. 7.1 Logs (Table 8)
[10] = 32 µM, 1 Minute irradiation = 1.2 J/cm^2, Starting Titer Approx. 7.1 Logs (Table 8)
[11] = 16 µM, HIV Starting Titer Approximately 5 Logs (Table 10)
[12] = 32 µM, HIV Starting Titer Approximately 5 Logs (Table 10)
[13] = 64 µM, HIV Starting Titer Approximately 5 Logs (Table 10)
[14] = 8 µM, 1 Minute Irradiation, Starting Titer Approx. 7.2 Logs (Table 7)
[15] = 16 µM, 1 Minute Irradiation, Starting Titer Approx. 7.2 Logs (Table 7)
[16] = 32 µM, 1 Minute Irradiation, Starting Titer Approx. 7.2 Logs (Table 7)

Structure (SMILES)	logs of HIV inactivated (cell-associated) [1] [logs]	log inactivation of HIV, dark control [1] [logs]	HIV Log Kill [2, 5]	HIV Log Kill [2, 6]	HIV Log Kill [2, 7]	R17 Log Kill [3, 8]	R17 Log Kill [3, 9]	R17 Log Kill [3, 10]	R17 inactivation efficiency compared with AMT [3]	HIV Log Kill [2, 11]	HIV Log Kill [2, 12]	HIV Log Kill [2, 13]	R17 Log Kill [3, 14]	R17 Log Kill [3, 15]	R17 Log Kill [3, 16]	also measured
Cc1cc(=O)oc2c(C)c3oc(COCCN)c(C)c3cc12 [Compound 18, 5'-(4-amino-2-oxa)butyl-4,4',8-trimethylpsoralen]	> 7.2	0	1.0	1.0	3.1											
Cc1oc2c(C)c3oc(=O)cc(C)c3cc2c1CNCCCCN [Compound 6, 4'-(6-amino-2-aza)hexyl4,5',8-trimethylpsoralen]			2.1	3.2	>2.8	>6	6.1	>6.1	significantly higher inactivation efficiency than does AMT	2.0	3.1	>3.8				R17 Log Kill ([3]; 8 µM, 1 Minute Irradiation, Starting Titer Approx. 7.1 Logs (Table 9)): >6; R17 Log Kill ([3]; 64 µM, 1 Minute irradiation = 1.2 J/cm^2, Starting Titer Approx. 7.1 Logs (Table 8)): >6.1; efficiency at inactivating R17 compared with AMT ([3]; constant concentration, varying doses of UV light 1.0-3.0 J/cm^2 (FIGS. 11-17)): more efficient at inactivating R17 than was AMT
Cc1oc2c(C)c3oc(=O)cc(C)c3cc2c1CN [AMT, 4'-Aminomethyl-4,5',8-trimethylpsoralen, reference compound]						>6	4.5	4.8		1.4			2.7	4.6	>6.2	R17 Log Kill ([3]; 32 µM, 1 Minute Irradiation, Starting Titer Approx. 7.1 Logs (Table 9)): >6; R17 log kill (32 µM) ([3]; 32 µM, 1 Minute Irradiation, Starting Titer Approx. 7.5 Logs (Table 6)): >6.7; PCR amplification of the 1072 bp amplicon of DHBV [4]: a signal could be detected; PCR amplification of the 1072 bp amplicon of DHBV ([4]; 70 and 100 mM in PC): inhibited PCR amplification
Cc1oc2c(C)c3oc(=O)cc(C)c3cc2c1COCCN [Compound 2, 4'-(4-amino-2-oxa)butyl-4,5',8-trimethylpsoralen]	> 6.7	0							significantly higher inactivation efficiency than does AMT	1.4	3.8	>4.5	3.8	>6.2	>6.2	PCR of the 1072 bp amplicon of DHBV ([4]; all concentrations (35, 70, and 100 mM) in PC): complete inhibition of PCR; inhibition of PCR of the smaller amplicons (127 bp, 327 bp) of DHBV ([4]; same concentrations as AMT): better than did AMT
